Reference: patent US12678471B2 (priority 2022, dated 2026)
Where two headings read alike, the source gives them in different places.

Experiments:
Type in all cases: cell-based
[1] = test system: Omicron S protein pseudotyped lentivirus (spike protein of the SARS-CoV-2 Omicron variant); test: microbe, parasite or virus in culture; conditions: read-out: Half inhibition concentration of viral infection (IC50) Omicron
[2] = test system: D614G S protein pseudotyped lentivirus (spike protein of the SARS-CoV-2 D614G variant); conditions: read-out: Half inhibition concentration of viral infection (IC50) D614G
[3] = test system: Delta S protein pseudotyped lentivirus (spike protein of the SARS-CoV-2 Delta variant); conditions: ACE2-293T cells; virus pretreated with compound 1 hour at 37° C.; 24 hours infection; mean ± SD (n = 3); read-out: Half inhibition concentration of viral infection (IC50) Delta

Molecule	IC50 ([1]; Lentivirus) [nM]	IC50 [2] [nM]	IC50 [3] [nM]	IC50 [1] [nM]
COc1cc2c3cc1Oc1c(OC)c(OC)cc4c1[C@@H](Cc1ccc(O)c(c1)Oc1ccc(cc1)C[C@@H]3N(C)CC2)N(C)CC4 [Berbamine]	2290 ± 290			
COc1cc2c3cc1Oc1c(O)c(OC)cc4c1[C@@H](Cc1ccc(O)c(c1)Oc1ccc(cc1)C[C@@H]3N(C)CC2)N(C)CC4 [Obamegine]	1190 ± 160	1400 ± 350		
Aromoline			470 ± 80	860 ± 120
Bersavine		1240 ± 170	2860 ± 130	1710 ± 340
